Assays:
P-gp (MDR1) = experiment: in vitro; conditions: dog, MDCK-MDR1
From the text: (§1) The present invention is directed to the use of a new in vitro model for evaluating the ability of a drug molecule to penetrate the cornea. The model involves the use of MDCK cell permeability values to predict the ability of drug molecules to penetrate the cornea. The MDCK permeability values of drug molecules can be determined by means of known methods, such as the methods described in the following scientific articles: • 1. Horio, M, Pastan, I, Gottesman, M M, and Handler, J S. Transepithelial transport of vinblastine by kidney-derived cell lines. Application of a new kinetic model to estimate in situ Km of the pump. […] Pan, B F, Dutt, A, and Nelson, J A. Enhanced transepithelial flux of cimetidine by Madin-Darby canine kidney cells overexpressing human P-glycoprotein. […] The entire contents of the above-cited references relating to methods for determining MDCK permeation values for drug molecules are hereby incorporated in the present specification by reference. […] Various commercial scientific laboratories may be utilized to obtain MDCK permeation values (e.g., Absorption Systems, Exton, Pa., USA).
(§2) In vitro MDCK cell permeability. Permeability and transport studies were conducted and the data were analyzed at Absorption Systems, Exton, Pa., using methods previously described.^12,13 MDCK(MDR) monolayers were grown to confluence on collagen-coated, microporous, polycarbonate membranes in 12-well Costar Transwell plates. To ensure monolayer integrity, the trans epithelial electrical resistance (TEER) was measured. […] The permeability assay buffer was Hank's Balanced Salt Solution containing 10 mM HEPES and 15 mM glucose at a pH of 7.0-7.2. Permeability through a cell-free (blank) membrane was studied to determine non-specific binding and free diffusion of the test article through the device. […] At each time point, 1 and 2 hours, a 200-μL aliquot was taken from the receiver chamber and replaced with fresh assay buffer. Cells were dosed on the apical side [apical-to-basolateral, absorptive transport, […]] or basolateral side [basolateral-to-apical, secretory transport, (B-A)] and incubated at 37° C. with 5% CO2 and 90% relative humidity. Each determination was performed in duplicate. Lucifer Yellow permeability was measured for each monolayer after the experiment, to ensure that the cell monolayer integrity and viability was not compromised by the test article.
(§3) To determine the transport of compounds in the absence of functional P-gp activity, the above experimental conditions were used but in the presence of the P-gp inhibitor cyclosporin A (CSA).^14 For the studies using CSA, cells were pre-incubated for 30 minutes with the inhibitor (10 μM) and washed; during the permeation determination period CSA (10 μM) was present on both sides of the membrane. The Papp A-B determined in the presence of CSA was taken as an estimate of the permeability attributed to passive diffusion for the compound (Papp PD).

MDCK(MDR) monolayers = experiment: in vitro; conditions: MDCK-MDR1
From the text: as §1, §2, §3

[1] = Ex vivo corneal penetration (perfusion chamber); type: in vitro ADME; conditions: rabbit; Table 2; read-out: Ex vivo Rabbit Corneal Permeability, Papp nm/s
Description: The intact eyes, along with the lids and conjunctival sacs were then enucleated and immediately stored in about 70 ml of fresh BSS PLUS® Sterile Irrigating Solution (Alcon Laboratories, Inc.) saturated with O2/CO2 (95:5). Within one hour, corneas were mounted in the modified perfusion chamber as described by Schoenwald and Huang (G1). BSS PLUS® solution was used as the receiving and rinsing solution throughout the perfusion experiments. Steady-state conditions were used in order to determine the apparent permeability coefficients. After mounting the corneas in the chamber, 7.5 mls of BSS PLUS® solution was added to the receiving chamber (endothelial side of the cornea). Then, 7 mls of 0.1 mMole solutions of each fluoroquinolone prepared in BSS PLUS® solution was added into the donor chamber (epithelial side of the cornea). Throughout the experiment, both solutions were bubbled continuously with O2/CO2 (95:5) at the rate of about one bubble per second. This provides mixing of the solution in each chamber, oxygenation of the cornea, and pH control. Samples (0.15 ml) were withdrawn from the receiving chamber at 30 min intervals over a period of five hours. BSS PLUS® solution (0.15 ml) was added back to the receiving chamber after each withdrawal to compensate for loss of volume.
At the end of each permeability experiment, The final volume of the receiving chambers was noted, and the viability of the corneas was assessed by determining their hydration level: The corneas were trimmed of excess scleral tissue and conjunctiva, blotted, weighed, dried overnight at room temperature under vacuum over phosphorus pentoxide, and then re-weighed.
C is the steady state measured concentration of […] in the donor solution in units of μg/ml or ppm; and 60 is the conversion of minutes to seconds.

cornea = experiment: Predicted corneal permeability from MDCK permeability by statistical model; conditions: Corneal Permeability=5.41(MDCK Permeability)−0.01(MDCK Permeability)^2; in nm/s
From the text: The method of the present invention comprises the following steps: (1) determining the MDCK permeation value for a drug molecule; and (2) entering said value in a suitable linear or quadratic statistical model to calculate a predicted corneal permeability value for said molecule. The statistical model is created by obtaining MDCK permeation values and corneal penetration values for at least two representative drug molecules, plotting those values on a graph and deriving a linear or quadratic statistical model from the graph.

Papp at 10 μM (P-gp (MDR1)) [nm/s]	MDCK^2 (MDCK(MDR) monolayers)	Papp at 5 h, 0.1 mMole [1] [nm/s]	Predicted Corneal Permeability (cornea)	Post experiment Lucifer Yellow permeability in monolayers (MDCK(MDR) monolayers)	Compound
33.9	1149.21	240	164.91		CC(C)(C)NC[C@H](O)COc1nsnc1N1CCOCC1 [Timolol]
6.6	43.56	160	33.83		O=C1OC2(c3ccc(O)cc3Oc3cc(O)ccc32)c2ccccc21 [Fluorescein]
181	32761	740	625.74		NC(=O)Cc1cccc(C(=O)c2ccccc2)c1N [Nepafenac]
	1428.84				C[C@@H]1C[C@H]2[C@@H]3CCC4=CC(=O)C=C[C@]4(C)[C@@]3(F)[C@@H](O)C[C@]2(C)[C@@]1(O)C(=O)CO [Dexamethasone]
36.8	1354.24	98	177.99		CC[C@@H]1C(=O)OC[C@@H]1Cc1cncn1C [Pilocarpine]
				0.24-0.75 ×10^−6 cm/s	Lucifer Yellow

Compound	Papp at 10 μM (P-gp (MDR1)) [nm/s]	MDCK^2 (MDCK(MDR) monolayers)	Papp at 5 h, 0.1 mMole [1] [nm/s]	Predicted Corneal Permeability (cornea)	Post experiment Lucifer Yellow permeability in monolayers (MDCK(MDR) monolayers)
CC(C)NCC(O)COc1ccc(CCOCC2CC2)cc1 (stereo not drawn) [Betaxolol]	202	40804	600	657.76	
O=C1CC2(CCCC2)CC(=O)N1CCCCN1CCN(c2ncccn2)CC1 [Buspirone]	325	105625	665	675.82	
Nc1cc(Cl)c(N=C2NCCN2)c(Cl)c1 [Apraclonidine]	3.8	14.44	38	19.58	

From US7297505B2, “Use of MDCK cell line to predict corneal penetration of drugs” (Alcon, Inc., priority 2004, dated 2007)
